Measurements taken from US20230023092A1, “TREATMENT OF DEPRESSION AND OTHER VARIOUS DISORDERS WITH PSILOCYBIN” (COMPASS […], priority 2019, published 2023).

Test system: healthy subjects
Assay: CANTAB global composite score
Format: in vivo, human
Conditions: 10 mg, Day 7
Experimental: The following list of outcome measures are non-exhaustive. • a. The short-term change from Baseline (Day −1 [Visit 2]) to Day 7 (Visit 5) in cognitive measures of attention, spatial and working memory and executive function was measured by a composite score of the CANTAB Panel (Spatial Working Memory [SWM], Rapid Visual Information Processing [RVP], Paired Associates Learning [PAL]). • b. The short-term change from Baseline (Day −1 [Visit 2]) to Day 7 (Visit 5) in Social Cognition Panel scales (Pictorial Empathy Test [PET], Reading the Mind in the Eyes Test [RMET], Toronto Empathy Questionnaire [TEQ], Social Value Orientation [SVO], Scale of Social Responsibility [SSR]). • c. The change from Baseline (Day −1 [Visit 2]) to Day 28 (Visit 6) in cognitive measures of attention, spatial and working memory and executive function as measured by a composite score of the CANTAB Panel (SWM, RVP, PAL). • d. […] Dose-related differences between cognitive effects of psilocybin at Baseline (Day −1 [Visit 2]), Day 7 (Visit 5) and Day 28 (Visit 6), as measured by a composite score of the CANTAB Panel (SWM, RVP, PAL). • f. Dose-related differences between psychological effects of psilocybin at Baseline (Day −1 [Visit 2]), Day 7 (Visit 5) and Day 84 (Visit 7), as measured by Social Cognition Panel scales (PET, RMET, TEQ, SVO, SSR). • g. […]

In the case of CN(C)CCc1c[nH]c2cccc(OP(=O)(O)O)c12 [Psilocybin, psilocybin], the “CANTAB global composite score, effect size of difference from placebo” value is reported as 0.53 and the “CANTAB global composite score, LS mean difference from placebo” value (p value ~0.04460) is reported as −0.1832.
